# Results: patent US9066922B2, “Pharmaceutical composition for the treatment or prevention of diseases involving obesity, diabetes, metabolic syndrome, neuro-degenerative diseases and mitochondria dysfunction diseases” (MD BIOALPHA CO., LTD., priority 2005, dated 2015)
# How the values were obtained:
# [1] = tested on: C57BL/6JL Lep ob/Lep ob mice; assay: Blood lipid, glucose and enzyme levels in obese mice (ob/ob); type: in vivo; design: unit not given here; details: 100 mg/kg for 26 days
# Excerpt: 10-week-old C57BL/6JL Lep ob/Lep ob male mice having obesity characteristics and predisposition were purchased from Daehan Biolink Co., Ltd. (Chungchongbuk-do, Korea). Animals were raised in a breeding room maintained at a temperature of 23 C, 55% humidity, illumination of 300 to 500 lux, a 12-h light/dark (L/D) cycle, and ventilation of 10 to 18 times/hr. Animals were fed ad libitum pellets of Purina Rodent Laboratory Chow 5001 (purchased from Purina Mills Inc., St. Louis, Mo., USA) as a solid feed for experimental animals and tap water as drinking water. Mice were allowed to acclimate to new environment of the breeding room for two weeks and were then administered some pyrano-o-naphthoquinone and furano-o-naphthoquinone derivatives synthesized according to the present invention at doses of 100 mg/kg for 26 days. Observation was made on changes in body weight, blood glucose and dietary intake, with respect to a time course of administration. After administration was complete, Computed Tomography (CT) was performed to confirm changes in adipose tissue distribution of animals, changes in fat distribution of tissues in various organs, changes in sizes of adipocytes, and changes in glucose, lipid and enzyme levels in blood and liver.
# AMP kinase = assay: Phosphorylation of AMPK by β-lapachone in HepG2 cells; type: cell-based, Human; details: 10 μM, 30 min to 6 hr
# Experimental: This example was carried out to confirm whether β-lapachone (Compound 1) has effects on phosphorylation of AMPK and ACC, which are intracellular energy-regulating proteins. In order to examine phosphorylation of AMP kinase and ACC (acetyl-CoA carboxylase) by β-lapachone, HepG2 cells (Human hepatocellular liver carcinoma cell line) were seeded onto a 6-well plate at a density of 1×10^5 cells per well, and cultured in a RPMI+10% FBS medium. After growing the cells for 24 hours, the culture medium was replaced with a serum-free RPMI medium, and cells were treated with β-lapachone (10 μM) for 30 min, 1 hr, 2 hr, 4 hr and 6 hr, respectively, in combination with a control (DMSO). Anti-ACC and Anti-pS79-ACC were used in order to observe phosphorylated ACC, whereas Anti-AMPK and Anti-pT172-AMPK were used in order to observe phosphorylated AMP kinase, respectively.
# [2] = tested on: endothelial nitric oxide synthase (eNOS); assay: Phosphorylation of eNOS in HUVEC; type: cell-based, Human; details: 10 μM
# Experimental: It is well-known that activation of AMPK activates NRF-1 and facilitates mitochondrial biogenesis. In addition, NO/cGMP activates PGC-1a and NRF-1 to facilitate mitochondrial biogenesis. In order to ascertain whether β-lapachone, which activates AMPK, is involved in production of nitric oxide (NO), a degree of phosphorylation, increasing the activity of endothelial nitric oxide synthase (eNOS), was determined. In order to examine phosphorylation of eNOS by the action of β-lapachone, Human Umbilical Vein Endothelial Cells (HUVEC) were seeded onto a 60-mm plate at a density of 1×10^5 cells, and cultured in EBM2+5% FBS medium for 24 hours. The culture medium was replaced with a serum-free EBM2 medium, and cells were treated with β-lapachone (10 μM) for a predetermined period of time. Phosphorylated eNOS was observed using Anti-pS1177 eNOS.
# AMPK = assay: Activation of AMPK in liver and gonadal adipose tissues of C57BL/6 mice; type: in vivo; details: 5 mg/kg via tail veins, 2 hours and 4 hours
# Experimental: A vehicle and 5 mg/kg of β-lapachone were administered via tail veins to C57BL/6 mice for 2 hours and 4 hours, respectively. Liver and gonadal adipose tissues were removed and activity of AMPK kinase was assayed. A degree of activation was expressed as a CPM value of radioisotopes. Using the same manner, HepG2 cells, a cell line derived from human liver, were treated with 10 μM β-lapachone for 30 min, and then an assay for AMPK kinase activity was carried out.
# [3] = tested on: mRNAs of PPAR alpha, PPAR gamma, AOX, AMPK alpha 1 and 2, CPT1; assay: Expression of genes involved in energy metabolism in DIO mice; type: in vivo, C57BL/6 mice; details: 50 mg/kg daily oral
# Experimental: β-lapachone was administered daily to diet-induced obesity (DIO) mice at a dose of 50 mg/kg via an oral route, and levels of transcripts of genes involved in energy metabolism in the liver and gonadal adipose tissues were measured using real-time quantitative PCR. Referring to enzymes shown in FIG. 11, PPAR alpha and gamma are enzymes responsible for transcriptional regulation of enzymes involved in energy expenditure (30,31), AMPK plays a central role in the maintenance of cell energy homeostasis by sensing the intracellular AMP/ATP ratio, and AOX catalyzes to activate oxidative phosphorylation via oxidation of acyl CoA which resides in a certain step of a lipid metabolism process (32,33). In addition, CPT1 is also an enzyme involved in energy metabolism, and is well-known as an enzyme that enables the passage of long chain acyl CoA into mitochondria, not taking a route toward synthesis of triacylglycerol (34,35). […] Increased expression levels of such genes show the possibility that β-lapachone can be as therapeutic for the treatment of energy metabolism-related diseases.
# [4] = tested on: transcripts of Sirtuin (SIRT) genes; assay: Expression of SIRT-related transcripts in DIO mice; type: in vivo, C57BL/6 mice; details: 50 mg/kg daily oral, gonadal adipose tissues, days 7, 28 and 56
# Experimental: β-lapachone was administered daily to diet-induced obesity (DIO) mice at a dose of 50 mg/kg via an oral route, and levels of transcripts of Sirtuin (SIRT) (36,37) genes in gonadal adipose tissues were measured on days 7, 28 and 56 of administration, respectively, using real-time quantitative PCR. Referring to SIRT-related transcripts shown in FIG. 12, there are known 7 species of transcripts in humans.
# [5] = liver and gonadal adipose tissues
smiles,measurement,setting,value
"CC1(C)CCC2=C(O1)c1ccccc1C(=O)C2=O [Compound 1, β-Lapachone]",Cholesterol,[1],121
same,GOT,[1],42
same,GPT,[1],39
same,Glucose,[1],120
same,Triglyceride,[1],143
same,"phosphorylation of AMP kinase (Anti-pT172-AMPK), onset",AMP kinase,could be observed from the initial time (30 min)
same,"phosphorylation of AMP kinase, duration of effect",AMP kinase,lasted up to 6 hours
same,phosphorylation of eNOS after the maximum,[2],"gradually diminished, thereby not observed 2 hours later"
same,time of maximum increase of phosphorylation of eNOS (Anti-pS1177 eNOS),[2],30 min
same,AMPK activity in the liver and gonadal adipose tissues,AMPK,increased AMPK activity
same,PPAR alpha mRNA level,[3]; [5],not changed
same,PPAR gamma mRNA level,[3]; [5],about two-fold increases
same,AMPK alpha 1 mRNA level,[3]; vs control group,increased levels in mRNAs
same,AMPK alpha 2 mRNA level,[3]; vs control group,increased levels in mRNAs
same,acyl CoA oxidase (AOX) mRNA level,[3]; vs control group,increased levels in mRNAs
same,carnitine palmitoyltransferase 1 mRNA level,[3]; vs control group,increased levels in mRNAs
same,SIRT2 transcript level,[4],did not exhibit any noticeable difference
same,SIRT3 transcript level,[4],significantly increased
same,SIRT5 transcript level,[4],did not exhibit any noticeable difference
same,SIRT6 transcript level,[4],significantly increased
same,SIRT7 transcript level,[4],did not exhibit any noticeable difference
same,SITR1 transcript level,[4],significantly increased
